Assay results as given in patent US20240245641A1, “PHARMACEUTICAL COMPOSITION FOR PREVENTING OR TREATING DIABETES MELLITUS IN ANIMAL OF FAMILY CANIDAE, COMPRISING ENAVOGLIFLOZIN” (DAEWOONG PHARMACEUTICAL CO., LTD., priority 2021, published 2024).

Assays:
[1] = tested on: dogs with insulin-dependent diabetes mellitus (type 1 diabetes mellitus); test: Evaluation of side effects after administration of enavogliflozin with insulin (disease activity index, cystitis, hypoglycemia); format: in vivo, dog
Procedure: (§1) This study evaluated the safety and efficacy of enavogliflozin along with insulin therapy in dogs with insulin-dependent diabetes mellitus (type 1 diabetes mellitus) as a prospective, open-label, non-randomized, multicenter, and proof-of-concept study. The efficacy and safety of enavogliflozin were evaluated at predetermined times during the treatment period.
(§2) Diabetic dogs meeting the following criteria were allowed to participate in a clinical trial: Small dogs under 15 years of age (less than 10 kg), medium-sized dogs under 13 years of age (11 to 22 kg), stable basal dose insulin therapy at least 1 month prior to the screening visit, post-insulin nadir (Nadir) blood glucose minimum of 200 mg/dl, and blood ketone levels less than 0.6 mmol/L.
(§3) However, diabetic dogs meeting the following criteria were excluded: Dogs with chronic kidney disease (CKD IRIS stage >2), hypotension evaluation, administration of diuretics or related drugs, confirmed pregnancy, and taking drugs affecting the test within 14 days prior to test start.
(§4) The study was performed for 8 weeks, and dogs participating in the clinical trial were divided into two groups, a TOD test group and a SID test group, according to the dose of enavogliflozin administered. Enavogliflozin was administered to the TOD test group and the SID test group at a dose of 0.025 mg/kg once every 3 days and once a day, respectively. For proper evaluation, the dogs were administered the drug with breakfast, and after dosing was completed, dogs underwent physical examinations such as blood pressure, blood tests and urine tests. Thereafter, researchers adjusted insulin doses to meet target blood glucose levels during monitoring (Nadir glucose levels, 80 to 150 mg/dl).
(§5) A primary evaluation variable was whether blood fructosamine levels decreased without developing severe hypoglycemia or diabetic ketoacidosis (DKA) after the animals were randomly divided into groups. […] The diagnosis of diabetic ketoacidosis was evaluated based on the presence of anion-gap metabolic acidosis associated with excessive ketogenesis without other causes. […]

[2] = tested on: dogs with insulin-dependent diabetes mellitus (type 1 diabetes mellitus); test: Evaluation of body weight and blood pressure after administration of enavogliflozin; format: in vivo, dog
Procedure: as §1, §2, §3, §4, §5

[3] = tested on: dogs with insulin-dependent diabetes mellitus (type 1 diabetes mellitus); test: Evaluation of renal function (blood and urine tests) after administration of enavogliflozin; format: in vivo, dog; conditions: after 8 weeks treatment, mean ± S.D
Procedure: as §1, §2, §3, §4
(§6) A primary evaluation variable was whether blood fructosamine levels decreased without developing severe hypoglycemia or diabetic ketoacidosis (DKA) after the animals were randomly divided into groups. A secondary evaluation variable was a change in fasting blood glucose levels, body weight and a mean bolus dose of insulin from baseline to 8 weeks. […] The diagnosis of diabetic ketoacidosis was evaluated based on the presence of anion-gap metabolic acidosis associated with excessive ketogenesis without other causes. Safety information including data on clinical and laboratory values and side effects was collected at each study visit.
(§7) Differences before and after drug administration within the groups were compared using the Student paired t-test or the Wilcoxon rank test. Furthermore, differences between groups after drug administration through a mixed ANOVA test were confirmed. Statistical analysis was performed with the R programming language (https://cran.r-project.org/) and GraphPad Prism version 7 (GraphPad Software, Inc., La Jolla, California). A p-value less than 0.05 was considered statistically significant.
Changes in renal function before and after administration of enavogliflozin were confirmed through blood and urine tests. Blood test items include blood urea nitrogen (BUN), creatinine, symmetric di-methyl-arginine (SDMA), cystatin-C, beta-2-microglobulin (B2M) and N-acetyl-β-d-glucosaminidase (NAG). Urinalysis items include urine specific gravity (USG) and urine protein to creatinine (UPC) ratio.

[4] = tested on: dogs with insulin-dependent diabetes mellitus (type 1 diabetes mellitus); test: Evaluation of metabolic acidosis after administration of enavogliflozin; format: in vivo, dog; conditions: for Anion Gap / HCO3 / Ketone (blood) / LDH / pH (venous blood gas): after 8 weeks treatment, mean ± S.D
Procedure: as §1, §2, §3, §4, §6, §7
In addition, when lactate dehydrogenase (LDH) was measured, there was no significant change in both test groups compared to before administration. Blood pH, bicarbonate (HCO3), and the anion gap were confirmed by a venous blood gas test, and there was no significant difference before and after administration (Table 4). […] In Table 4, all values are expressed as mean±S.D, and p-values less than 0.05 were considered statistically significant.

[5] = tested on: dogs with insulin-dependent diabetes mellitus (type 1 diabetes mellitus); test: Evaluation of lipid metabolism after administration of enavogliflozin; format: in vivo, dog; conditions: after 8 weeks treatment, mean ± S.D
Procedure: as §1, §2, §3, §4, §6, §7
Blood cholesterol was measured to confirm the effect of enavogliflozin on lipid metabolism. Changes in triglycerides and total cholesterol (T-Chol) were not statistically significant. […] In Table 5, all values are expressed as mean±S.D, and p-values less than 0.05 were considered statistically significant.

[6] = tested on: dogs with insulin-dependent diabetes mellitus (type 1 diabetes mellitus); test: Evaluation of regulation of blood glucose after 8 weeks of enavogliflozin with insulin; format: in vivo, dog
Procedure: as §1, §2, §3, §4, §6, §7
The regulation of blood glucose before and after administration was confirmed through blood tests (fructosamine and fasting glucose) and the daily insulin dose. […] However, fructosamine concentration was improved (p=0.041). […] In addition, as a result of comparing the difference between the test groups at 8 weeks, there was no significant difference in fasting blood glucose, fructosamine, and insulin reduction rate. However, there was a tendency towards a decrease in the SID test group taking enavogliflozin once a day compared to the TOD test group taking enavogliflozin once every 3 days (FIGS. 2A to 2C).

[7] = tested on: dogs with insulin-dependent diabetes mellitus (type 1 diabetes mellitus); test: Long-term effectiveness, enavogliflozin with insulin for up to 6 months; format: in vivo, dog
Procedure: In addition, long-term effectiveness was confirmed by additionally administering enavogliflozin to the companion dogs participating in the clinical trial at the same usage and dosage (SID or TOD) for up to 6 months.
as §7
Furthermore, as a result of confirming the long-term effectiveness by administering enavogliflozin at the same usage and dose for up to 6 months, fasting blood glucose, fructosamine and insulin reduction rate were improved in all SID/TOD test groups.

[8] = molecular target: T1, human SGLT2 (Homo sapiens, UniProt P31639); conditions: disclosed in U.S. Patent Publication No. 2015/0152075; cited from earlier work
T1 sequence (P31639 1-672): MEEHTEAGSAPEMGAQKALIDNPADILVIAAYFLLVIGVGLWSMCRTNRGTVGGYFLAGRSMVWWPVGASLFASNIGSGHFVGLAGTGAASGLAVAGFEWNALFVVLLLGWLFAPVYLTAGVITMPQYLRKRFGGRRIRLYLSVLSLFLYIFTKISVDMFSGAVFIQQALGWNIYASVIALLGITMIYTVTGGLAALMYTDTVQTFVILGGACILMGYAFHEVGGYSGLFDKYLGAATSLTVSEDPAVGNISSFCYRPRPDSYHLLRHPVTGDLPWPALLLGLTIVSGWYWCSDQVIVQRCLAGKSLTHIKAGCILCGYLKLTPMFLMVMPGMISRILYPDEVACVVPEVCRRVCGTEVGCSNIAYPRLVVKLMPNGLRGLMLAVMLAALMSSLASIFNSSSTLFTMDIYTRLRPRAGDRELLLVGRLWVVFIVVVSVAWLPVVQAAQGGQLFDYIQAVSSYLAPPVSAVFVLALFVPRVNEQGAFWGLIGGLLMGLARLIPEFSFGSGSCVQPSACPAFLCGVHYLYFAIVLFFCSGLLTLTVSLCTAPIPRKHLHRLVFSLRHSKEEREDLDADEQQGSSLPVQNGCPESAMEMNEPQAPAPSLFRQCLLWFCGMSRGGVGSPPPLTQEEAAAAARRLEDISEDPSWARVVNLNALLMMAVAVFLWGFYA

[9] = both groups (TOD and SID), 0.025 mg/kg with insulin, 8 weeks
[10] = SID test group, 0.025 mg/kg once a day with insulin
[11] = TOD test group, 0.025 mg/kg once every 3 days with insulin
[12] = TOD test group, 0.025 mg/kg once every 3 days with insulin, 8 weeks
[13] = SID administration group, 0.025 mg/kg once a day with insulin, up to 6 months (p<0.0234)

For `OC[C@H]1O[C@@H](c2cc(Cc3ccc(C4CC4)cc3)c(Cl)c3c2CCO3)[C@H](O)[C@@H](O)[C@@H]1O` [enavogliflozin], the “new cases of bacterial cystitis” value ([1]; any test group (TOD, SID), 8 weeks) was “no new cases”, the “disease activity index (appetite, activity, stool status)” value ([1]; dog, in vivo) was “no difference between before and after administration” and the “severe hypoglycemia leading to loss of consciousness or seizures” value ([1]; dog, in vivo) was “no severe hypoglycemia”. The “Blood pressure (systolic), change after administration” value ([2]; SID test group, 0.025 mg/kg once a day with insulin, 8 weeks (p=0.033)) was “significantly reduced”, the “BCS (body condition score), change after administration” value [2, 9] was “no difference” and the “Body weight, change after administration” value [2, 9] was “tended to decrease”. It also gave a BUN ([3]; SID test group (n = 8), 0.025 mg/kg once a day with insulin) of 21.9 ± 6.8 mg/dL, a Creatinine [3, 10] of 0.6 ± 0.1 mg/dL and a Cystatin-C [3, 10] of 0.5 ± 0.1 mg/L. For the same compound, the NAG [3, 10] was 9.0±4.3 U/g, the SDMA [3, 10] was 7.8 ± 1.4 µg/dL and the “UPC (urine protein to creatinine ratio)” value [3, 10] was 1.1±1.6. The “USG (urine specific gravity)” value [3, 10] was 1.043±0.008, the BUN ([3]; TOD test group (n = 10), 0.025 mg/kg once every 3 days with insulin) was 22.5 ± 11.7 mg/dL and the Creatinine [3, 11] was 0.9 ± 0.2 mg/dL. It also gave a Cystatin-C [3, 11] of 0.5 ± 0.2 mg/L, an NAG [3, 11] of 7.6±5.8 U/g and an SDMA [3, 11] of 9.2 ± 5.5 µg/dL. The “UPC (urine protein to creatinine ratio)” value [3, 11] was 1.1±1.8, the “USG (urine specific gravity)” value [3, 11] was 1.034±0.011 and the “Anion Gap” value [4, 10] was 13.2 ± 4.5 mmol/L. The HCO3 [4, 10] was 25.0 ± 2.5 mmol/L, the “Ketone (blood)” value [4, 10] was 0.4 ± 0.1 mmol/L and the LDH [4, 10] was 230.8 ± 79.6 U/L. For the same compound, the “pH (venous blood gas)” value [4, 10] was 7.4 ± 0.1, the “Anion Gap” value [4, 11] was 12.0 ± 4.2 mmol/L and the HCO3 [4, 11] was 24.3 ± 3.6 mmol/L. For the same compound, the “Ketone (blood)” value [4, 11] was 0.2 ± 0.1 mmol/L, the LDH [4, 11] was 444.5 ± 584.7 U/L and the “pH (venous blood gas)” value [4, 11] was 7.4 ± 0.1. The diabetic ketoacidosis ([4]; both test groups, eight weeks after administration) was “did not occur”, the Lipase [5, 10] was 226.8 ± 215.0 U/L and the “T-Chol (total cholesterol)” value [5, 10] was 261.3 ± 150.5 mg/dL. The Triglyceride [5, 10] was 515.2 ± 977.9 mg/dL, the Lipase [5, 11] was 197.3 ± 230.1 U/L and the “T-Chol (total cholesterol)” value [5, 11] was 327.6 ± 114.7 mg/dL. It also gave a Triglyceride [5, 11] of 384.9 ± 425.3 mg/dL, a daily insulin dose ([6]; SID test group, 0.025 mg/kg once a day with insulin, after 8 weeks (before: 2.0±0.8)) of 1.5±0.5 units/kg/day and a fasting blood glucose ([6]; SID test group, 0.025 mg/kg once a day with insulin, after 8 weeks (before: 330.8±118.0; p=0.0078)) of 215.5 ± 126.2 mg/dL. The fructosamine levels ([6]; SID test group, 0.025 mg/kg once a day with insulin, after 8 weeks (before: 475.3±107.6; p=0.034)) was 393.1 ± 122.9 µmol/L, the “daily insulin dose, change before/after administration” value [6, 12] was “decreased, but the difference was not statistically significant” and the “fasting blood glucose, change before/after administration” value [6, 12] was “decreased, but the difference was not statistically significant”. The “fructosamine concentration, change before/after administration” value ([6]; TOD test group, 0.025 mg/kg once every 3 days with insulin, 8 weeks (p=0.041)) was “improved”, the “fasting blood glucose, 6 months” value [7, 13] was “statistically significant reduction” and the “insulin reduction rate, 6 months” value [7, 13] was “statistically significant reduction”. The “fructosamine, 6 months” value ([7]; TOD test group, 0.025 mg/kg once every 3 days with insulin, up to 6 months (p<0.0313)) was “statistically significant reduction”, the “fasting blood glucose, fructosamine and insulin reduction rate, 6 months” value ([7]; all SID/TOD test groups, 0.025 mg/kg with insulin, up to 6 months) was “improved” and the “inhibitory effect on human SGLT2 activity” value [8] was “excellent inhibitory effect”.
